Holding throughout (type): in vivo
Series [1] has as its system Echinochloa oryzacola Vasing. Put plainly: Test Example 2: herbicidal activity, application during weed generation in submerged conditions (symbol A). The conditions noted are these: Table 23; application herbicide amount 320 g/ha; grade 0-5 by criteria of Test Example 1. Summed up: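 Compound was applied as a water-diluted emulsion into the standing water of flooded pots (4 cm) once co-sown weeds reached one to two leaves. Greenhouse temperature was 25° C. to 30° C., soil was alluvial, and each species was rated visually after 3 weeks.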

For another series, the system named is Cyperus difformis. Put plainly: Test Example 3: herbicidal effect by foliage application, Wagner pot (symbol E). The conditions noted are these: application herbicide amount 320 g/ha. Summed up: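 In a shallow-flooded alluvial soil system held at 25–30 °C, plants including rice grew for 14 days and were then sprayed over the foliage with emulsion diluted to a fixed herbicide amount. Visual rating followed at 3 weeks.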

Series [2] concerns directly sowed rice plant. Put plainly: Test Example 3: effect on crop by foliage application, Wagner pot (symbol b). The conditions noted are these: application herbicide amount 320 g/ha. Summed up:
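Alluvial soil in a 1/10000-are Wagner pot was flooded to a water depth of 0.1–0.5 cm. Echinochloa crus-galli var. crus-galli, Leptochloa chinensis, Cyperus difformis and rice were sown into it and grown in a greenhouse at 25–30 °C.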

Series [3] concerns Digitaria ciliaris. Put plainly: Test Example 4: herbicidal effect by soil treatment (symbol F). The conditions noted are these: application herbicide amount 320 g/ha. The method, boiled down:
(§1)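 Seeds were sown in sterilized diluvial soil, covered with about 1.5 cm of soil, and the soil surface was sprayed with a water-diluted emulsion of the compound at a predetermined rate. Plants grew in a greenhouse at 25° C. to 30° C.; effects were scored visually 3 weeks after application.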

Series [4] deals with Echinochloa crus-galli var. crus-galli. The experiment in a line: Test Example 4: herbicidal effect by soil treatment (symbol H). The conditions noted are these: application herbicide amount 320 g/ha. Summed up:
as §1

Another series has as its system Lolium multiflorum Lam. Put plainly: Test Example 4: herbicidal effect by soil treatment (symbol K). The conditions noted are these: application herbicide amount 320 g/ha. The method, boiled down: as §1
A further series concerns Abutilon theophrasti. The experiment in a line: Test Example 4: herbicidal effect by soil treatment (symbol M). Conditions: application herbicide amount 320 g/ha. The method, boiled down:
as §1

The next series concerns corn. The experiment in a line: Test Example 4: effect on crop by soil treatment (symbol c). The conditions noted are these: application herbicide amount 320 g/ha. The method, boiled down: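 Soil-treatment setup: crop and weed seeds were spot-sown into sterilized diluvial soil, then buried beneath approximately 1.5 cm of it, and the boxes were housed in a 25–30° C. greenhouse.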

Another series deals with rice. Put plainly: Test Example 4: effect on crop by soil treatment (symbol b). Conditions: application herbicide amount 320 g/ha. The method, boiled down:
(§2)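 Crop seed is sown in spots together with several weed species in a box of sterilized diluvial soil. It is covered by about 1.5 cm of soil and kept in a greenhouse held between 25° C. and 30° C.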

In another series the test system is wheat. Put plainly: Test Example 4: effect on crop by soil treatment (symbol e). The conditions noted are these: application herbicide amount 320 g/ha. Summed up:
as §2

Series [5] relates to beet. The experiment in a line: Test Example 4: effect on crop by soil treatment (symbol f). Conditions: application herbicide amount 320 g/ha. Summed up:
as §2

The subject of series [6] is Digitaria ciliaris. The experiment in a line: Test Example 5: herbicidal effect by foliage application, plastic box (symbol F). The conditions noted are these: 320 g/ha, 3 weeks after application. Summed up:
(§3)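 Greenhouse foliar test: seedlings at 14 days, grown 25° C. to 30° C. in sterilized diluvial soil; compound applied as an aqueous dilution of an emulsion; response read 3 weeks after spraying.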

Another series has as its system Setaria viridis. The experiment in a line: Test Example 5: herbicidal effect by foliage application, plastic box (symbol G). The conditions noted are these: 320 g/ha, 3 weeks after application. Summed up:
as §3

For a further series, the system named is Alopecurus myosuroides. Put plainly: Test Example 5: herbicidal effect by foliage application, plastic box (symbol J). The conditions noted are these: 320 g/ha, 3 weeks after application. The method, boiled down: as §3
The subject of another series is Apera spica-venti. The experiment in a line: Test Example 5: herbicidal effect by foliage application, plastic box (symbol L). The conditions noted are these: 320 g/ha, 3 weeks after application. Summed up:
as §3

Series [7] has as its system beet. Put plainly: Test Example 5: effect on crop by foliage application, plastic box (symbol f). Conditions: 320 g/ha, 3 weeks after application. Summed up:
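Foliage-application test plants come from spot sowing in sterilized diluvial soil under a soil layer of about 1.5 cm, grown at 25° C. to 30° C. in a greenhouse.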

The test system of another series is Veronica persica. Put plainly: Test Example 5: herbicidal effect by foliage application, plastic box (symbol R). The conditions noted are these: 320 g/ha, 3 weeks after application. The method, boiled down: as §3

As for `CON=C(C)CC1CC(OC(=O)CCC2CCCCC2)=C(c2c(C)cc(C)cc2C)C1=O` (stereo not shown) [1-035], in series [1], the “Herbicidal effect grade, A: Echinochloa oryzacola Vasing.” value is on record as 5 (Herbicidal ratio of 90% or more (almost completely withered)). The “herbicidal effect on E, grade 0-5” value in the series with Cyperus difformis was 5 (Herbicidal ratio of 90% or more (almost completely withered)). Further, in series [2], the “effect on crop b (directly sowed rice plant), grade 0-5” value (from here on “effect on crop b”) was 5 (Herbicidal ratio of 90% or more (almost completely withered)). In the series with Digitaria ciliaris [3], the “F (Digitaria ciliaris) herbicidal effect grade” value was 5 (Herbicidal ratio of 90% or more (almost completely withered)). In addition, the “H (Echinochloa crus-galli var. crus-galli) herbicidal effect grade” value in series [4] is given as 5 (Herbicidal ratio of 90% or more (almost completely withered)). In addition, in the series with Lolium multiflorum Lam., the “K (Lolium multiflorum Lam.) herbicidal effect grade” value was 5 (Herbicidal ratio of 90% or more (almost completely withered)). The “M (Abutilon theophrasti) herbicidal effect grade” value in the series with Abutilon theophrasti is 5 (Herbicidal ratio of 90% or more (almost completely withered)). The “c (corn) effect on crop grade” value with corn was 4 (Herbicidal ratio of 70% or higher and lower than 90%). Also, the “b (directly sowed rice plant) effect on crop grade” value in the series on rice is 5 (Herbicidal ratio of 90% or more (almost completely withered)). Moreover, the “e (wheat) effect on crop grade” value in the series on wheat is 4 (Herbicidal ratio of 70% or higher and lower than 90%). Also, the “f (beet) effect on crop grade” value with beet [5] is 3 (Herbicidal ratio of 40% or higher and lower than 70%). Also, the “F: Digitaria ciliaris, herbicidal effect grade” value (shortened to “F: Digitaria ciliaris”) with Digitaria ciliaris [6] was 5 (Herbicidal ratio of 90% or more (almost completely withered)). Further, the “G: Setaria viridis, herbicidal effect grade” value (shortened to “G: Setaria viridis”) with Setaria viridis was 5 (Herbicidal ratio of 90% or more (almost completely withered)). Moreover, in the series on Alopecurus myosuroides, the “J: Alopecurus myosuroides, herbicidal effect grade” value (“J: Alopecurus myosuroides” below) is 5 (Herbicidal ratio of 90% or more (almost completely withered)). In addition, in the series with Apera spica-venti, the “L: Apera spica-venti, herbicidal effect grade” value (“L: Apera spica-venti” for short) is 5 (Herbicidal ratio of 90% or more (almost completely withered)). For the same compound, in the series on beet [7], the “f: beet, effect on crop grade” value was 2 (Herbicidal ratio of 20% or higher and lower than 40%).

`CC(CC1CC(O)=C(c2c(C)cc(C)cc2C)C1=O)=NO` (stereo not shown) [1-058]: the “Herbicidal effect grade, A: Echinochloa oryzacola Vasing.” value in [1] is listed as 5 (Herbicidal ratio of 90% or more (almost completely withered)). Further, the “herbicidal effect on E, grade 0-5” value with Cyperus difformis is given as 5 (Herbicidal ratio of 90% or more (almost completely withered)). Besides, in [2], the “effect on crop b” value is given as 5 (Herbicidal ratio of 90% or more (almost completely withered)). Besides, the “F (Digitaria ciliaris) herbicidal effect grade” value with Digitaria ciliaris [3] is 5 (Herbicidal ratio of 90% or more (almost completely withered)). The “H (Echinochloa crus-galli var. crus-galli) herbicidal effect grade” value in series [4] is on record as 5 (Herbicidal ratio of 90% or more (almost completely withered)). Moreover, the “K (Lolium multiflorum Lam.) herbicidal effect grade” value with Lolium multiflorum Lam. is given as 5 (Herbicidal ratio of 90% or more (almost completely withered)). Moreover, the “M (Abutilon theophrasti) herbicidal effect grade” value in the series on Abutilon theophrasti is 4 (Herbicidal ratio of 70% or higher and lower than 90%). In the series with corn, the “c (corn) effect on crop grade” value was 4 (Herbicidal ratio of 70% or higher and lower than 90%). The “b (directly sowed rice plant) effect on crop grade” value in the series with rice is on record as 5 (Herbicidal ratio of 90% or more (almost completely withered)). The “e (wheat) effect on crop grade” value in the series on wheat was 0 (Herbicidal ratio of 5% or lower (almost no effect)). Besides, in the series with beet [5], the “f (beet) effect on crop grade” value was 0 (Herbicidal ratio of 5% or lower (almost no effect)). Also, the “F: Digitaria ciliaris” value with Digitaria ciliaris [6] is 5 (Herbicidal ratio of 90% or more (almost completely withered)). Besides, the “G: Setaria viridis” value with Setaria viridis was 5 (Herbicidal ratio of 90% or more (almost completely withered)). The “J: Alopecurus myosuroides” value in the series on Alopecurus myosuroides was 5 (Herbicidal ratio of 90% or more (almost completely withered)). Further, in the series with Apera spica-venti, the “L: Apera spica-venti” value is on record as 5 (Herbicidal ratio of 90% or more (almost completely withered)). Besides, the “f: beet, effect on crop grade” value in the series on beet [7] is given as 0 (Herbicidal ratio of 5% or lower (almost no effect)).

Consider `CON=C(C)CC1CC(OC(=O)C(C)(C)OC(C)=O)=C(c2c(C)cc(C)cc2C)C1=O` (stereo not shown) [1-034], for which, in series [1], the “Herbicidal effect grade, A: Echinochloa oryzacola Vasing.” value is 5 (Herbicidal ratio of 90% or more (almost completely withered)). Further, in the series on Cyperus difformis, the “herbicidal effect on E, grade 0-5” value is 5 (Herbicidal ratio of 90% or more (almost completely withered)). Also, the “effect on crop b” value in series [2] is listed as 5 (Herbicidal ratio of 90% or more (almost completely withered)). Besides, in the series on Digitaria ciliaris [3], the “F (Digitaria ciliaris) herbicidal effect grade” value is 5 (Herbicidal ratio of 90% or more (almost completely withered)). Besides, the “H (Echinochloa crus-galli var. crus-galli) herbicidal effect grade” value in series [4] is listed as 5 (Herbicidal ratio of 90% or more (almost completely withered)). Further, the “K (Lolium multiflorum Lam.) herbicidal effect grade” value in the series on Lolium multiflorum Lam. is listed as 5 (Herbicidal ratio of 90% or more (almost completely withered)). Moreover, the “M (Abutilon theophrasti) herbicidal effect grade” value in the series on Abutilon theophrasti is reported as 5 (Herbicidal ratio of 90% or more (almost completely withered)). For the same compound, the “c (corn) effect on crop grade” value in the series with corn was 4 (Herbicidal ratio of 70% or higher and lower than 90%). For the same compound, the “b (directly sowed rice plant) effect on crop grade” value in the series on rice is given as 5 (Herbicidal ratio of 90% or more (almost completely withered)). The “e (wheat) effect on crop grade” value in the series on wheat was 4 (Herbicidal ratio of 70% or higher and lower than 90%). The “f (beet) effect on crop grade” value with beet [5] is 4 (Herbicidal ratio of 70% or higher and lower than 90%). The “F: Digitaria ciliaris” value in the series on Digitaria ciliaris [6] was 5 (Herbicidal ratio of 90% or more (almost completely withered)). Further, the “G: Setaria viridis” value in the series with Setaria viridis is 5 (Herbicidal ratio of 90% or more (almost completely withered)). The “J: Alopecurus myosuroides” value with Alopecurus myosuroides is reported as 5 (Herbicidal ratio of 90% or more (almost completely withered)). In addition, in the series with Apera spica-venti, the “L: Apera spica-venti” value is listed as 5 (Herbicidal ratio of 90% or more (almost completely withered)). Moreover, the “f: beet, effect on crop grade” value with beet [7] is 4 (Herbicidal ratio of 70% or higher and lower than 90%).

For `CON=C(CC1CC(OC(=O)COc2ccccc2)=C(c2c(C)cc(C)cc2C)C1=O)C1CC1` (stereo not shown) [1-063], the “Herbicidal effect grade, A: Echinochloa oryzacola Vasing.” value in series [1] was 4 (Herbicidal ratio of 70% or higher and lower than 90%). For the same compound, the “herbicidal effect on E, grade 0-5” value in the series with Cyperus difformis was 5 (Herbicidal ratio of 90% or more (almost completely withered)). Moreover, the “effect on crop b” value in series [2] is recorded as 5 (Herbicidal ratio of 90% or more (almost completely withered)). For the same compound, the “F (Digitaria ciliaris) herbicidal effect grade” value with Digitaria ciliaris [3] is reported as 5 (Herbicidal ratio of 90% or more (almost completely withered)). For the same compound, in series [4], the “H (Echinochloa crus-galli var. crus-galli) herbicidal effect grade” value is reported as 5 (Herbicidal ratio of 90% or more (almost completely withered)). In the series with Lolium multiflorum Lam., the “K (Lolium multiflorum Lam.) herbicidal effect grade” value was 5 (Herbicidal ratio of 90% or more (almost completely withered)). For the same compound, in the series with Abutilon theophrasti, the “M (Abutilon theophrasti) herbicidal effect grade” value was 2 (Herbicidal ratio of 20% or higher and lower than 40%). Besides, in the series on corn, the “c (corn) effect on crop grade” value is 4 (Herbicidal ratio of 70% or higher and lower than 90%). In addition, the “b (directly sowed rice plant) effect on crop grade” value with rice is 5 (Herbicidal ratio of 90% or more (almost completely withered)). The “e (wheat) effect on crop grade” value in the series with wheat was 3 (Herbicidal ratio of 40% or higher and lower than 70%). Besides, the “F: Digitaria ciliaris” value in the series with Digitaria ciliaris [6] is 1 (Herbicidal ratio of 5% or higher and lower than 20%). Moreover, the “G: Setaria viridis” value in the series with Setaria viridis is 5 (Herbicidal ratio of 90% or more (almost completely withered)). The “J: Alopecurus myosuroides” value with Alopecurus myosuroides was 5 (Herbicidal ratio of 90% or more (almost completely withered)). In the series on Apera spica-venti, the “L: Apera spica-venti” value is 5 (Herbicidal ratio of 90% or more (almost completely withered)). Moreover, in the series on Veronica persica, the “R: Veronica persica, herbicidal effect grade” value is 4 (Herbicidal ratio of 70% or higher and lower than 90%). Further, in the series on beet [7], the “f: beet, effect on crop grade” value is recorded as 0 (Herbicidal ratio of 5% or lower (almost no effect)).

Source of the values: patent publication US11000033B2, “Ketone or oxime compound, and herbicide” (NISSAN CHEMICAL CORPORATION, priority 2014, dated 2021).
